Results as given in US20250059166A1, “PIPERIDINYLPYRIDINYLCARBONITRILE DERIVATIVES AS INHIBITORS OF GLUTAMINYL-PEPTIDE CYCLOTRANSFERASE AND GLUTAMINYL-PEPTIDE CYCLOTRANSFERASE LIKE PROTEIN” (Boehringer Ingelheim International GmbH, priority 2023, published 2025).
pIC50: −log10 of the molar value. Like-named read-outs stand apart in the source and are kept apart here.

Columns and labels:
[1] = test system: SIRPα signalling induced by A549 cells; assay: Assay B: SIRPα signalling assay using A549 cells; type: cell-based; settings: Homo sapiens
Experimental: (§1) Two cell types are independently used: the Raji cell line (lymphoblast-like human cell line derived from B lymphocytes from a Burkitt's lymphoma patient in 1963) and A549 cells (adenocarcinoma human alveolar basal epithelial cells).
(§2) Test compounds were dissolved in 100% DMSO and serially diluted into a white 384-well microtiter cell culture plate (PerkinElmer #60076780 in case of Raji assay; PDL-coated plates Greiner #781945 in case of A549 assay). 5000 Raji cells (ATCC #CC86) or 5000 A549 cells (ATCC #CCL-185) in Assay Complete Cell Plating reagent 30 (DiscoverX 93-0563R30B) were added per well. The assay plate was incubated for 48 h at 37° C., 95% humidity and 5% CO2. 15000 reporter cells (Jurkat PathHunter SIRPαV1, DiscoverX #93-1135C19) were added to each well, and the plate was incubated for 5 h at 37° C., 95% humidity and 5% CO2. Bioassay reagent 1 of the PathHunter Bioassay detection kit (DiscoverX 93-0001) was added to each well of the plate using a multichannel pipette followed by a 15 min incubation at room temperature. Afterwards bioassay reagent 2 was added followed by 60 min incubation at room temperature (incubation in the dark).
(§3) The analysis of the data was performed using the luminescence signal generated by beta-galactosidase in the PathHunter reporter cell line. The luminescence measurement was done using a Pherastar Multi-Mode Reader. Dose-response curves & IC50 data were calculated with 4-parameter sigmoidal dose response formula.

[2] = test system: SIRPα signalling induced by Raji cells; assay: Assay B: SIRPα signalling assay using Raji cells; type: cell-based; settings: Homo sapiens, read-out: Inhibition of SIRPα signalling induced by Raji cells: IC50
Experimental: as §1, §2, §3

[3] = Assay C: permeability in CACO-2 cells; type: in vitro ADME; settings: human
Experimental: Caco-2 cells (1-2×10^5 cells/1 cm^2 area) are seeded on filter inserts (Costar transwell polycarbonate or PET filters, 0.4 μm pore size) and cultured (DMEM) for 10 to 25 days. Compounds are dissolved in appropriate solvent (like DMSO, 1-20 mM stock solutions). […] The transport solution (TL) is applied to the apical or basolateral donor side for measuring A-B or B-A permeability (3 filter replicates), respectively. Samples are collected at the start and end of experiment from the donor and at various time intervals for up to 2 hours also from the receiver side for concentration measurement by HPLC-MS/MS or scintillation counting. Sampled receiver volumes are replaced with fresh receiver solution.
Efflux ratio(ER)=permeabilityB−A/permeabilityA−B

QPCT = target: T1, QPCT (Homo sapiens, UniProt Q16769); assay: Assay A: biochemical QPCT activity assay (MALDI-TOF MS, CD47 peptide substrate); settings: compounds of the invention; 0.5 nM enzyme, 20 μM CD47 peptide substrate; read-out: Inhibition of QPCT: IC50
T1 construct: purchased Origine (so in the source)
Experimental: (§4) QPCT or QPCTL dependent conversion of N-terminal glutamine to pyroglutamate of CD47 was monitored via MALDI-TOF MS. Test compounds were dissolved in 100% DMSO and serially diluted into clear 1,536-well microtiter plates. Enzymatic reactions were set up in assay buffer containing 20 mM Tris pH 7.5, 0.1 mM TCEP, 0.01% BSA, and 0.001% Tween20. […] The plates were incubated for 10 min in a humidified incubator at 24° C. Subsequently, 2.5 μL of CD47 peptide substrate surrogate (^19[…]^33) was added to each well (final concentration: 10 μM for QPCTL/20 μM for QPCT). The plates were mixed for 30 sec at 1,000 rpm and subsequently incubated for 40 min in a humidified incubator at 24° C. […] The plates were sealed with an adhesive foil, mixed for 30 s at 1,000 rpm and stored at room temperature until preparation of the MALDI target plates. […] QPCT or QPCTL activity was monitored by calculating the ratio between product and internal standard signals followed by normalization to high (100% activity) and low (0% activity) controls. Determination of compound potencies was obtained by fitting the dose-response data to a four-parameter logistical equation.

QPCTL = target: T2, QPCTL (Homo sapiens, UniProt Q9NXS2); assay: Assay A: biochemical QPCTL activity assay (MALDI-TOF MS, CD47 peptide substrate); settings: compounds of the invention; 0.5 nM enzyme, 10 μM CD47 peptide substrate; read-out: Inhibition of QPCTL: IC50
T2 construct: made in house
Experimental: as §4

[4] = compounds of the invention, A549 cells 48 h, Jurkat PathHunter SIRPαV1 reporter cells 5 h, read-out: Inhibition of SIRPα signalling induced by A549 cells: IC50
[5] = pH 7.2, compounds of the invention, Caco-2, permeability B-A / permeability A-B
[6] = compounds of the invention, Caco-2, apical to basolateral, pH 7.2
[7] = compounds of the invention, Raji cells 48 h, Jurkat PathHunter SIRPαV1 reporter cells 5 h

T2 sequence (Q9NXS2 whole entry): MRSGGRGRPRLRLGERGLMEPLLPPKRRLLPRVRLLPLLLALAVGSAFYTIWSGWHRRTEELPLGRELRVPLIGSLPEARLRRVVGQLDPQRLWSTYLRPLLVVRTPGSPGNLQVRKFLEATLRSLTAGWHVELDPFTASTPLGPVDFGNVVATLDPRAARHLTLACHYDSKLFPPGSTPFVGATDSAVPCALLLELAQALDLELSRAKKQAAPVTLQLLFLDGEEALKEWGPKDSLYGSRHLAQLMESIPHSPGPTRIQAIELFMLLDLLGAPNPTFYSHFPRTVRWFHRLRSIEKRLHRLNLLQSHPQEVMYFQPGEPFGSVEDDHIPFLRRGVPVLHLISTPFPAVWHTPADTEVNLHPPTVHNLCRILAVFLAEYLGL
T1 sequence (Q16769 29-361): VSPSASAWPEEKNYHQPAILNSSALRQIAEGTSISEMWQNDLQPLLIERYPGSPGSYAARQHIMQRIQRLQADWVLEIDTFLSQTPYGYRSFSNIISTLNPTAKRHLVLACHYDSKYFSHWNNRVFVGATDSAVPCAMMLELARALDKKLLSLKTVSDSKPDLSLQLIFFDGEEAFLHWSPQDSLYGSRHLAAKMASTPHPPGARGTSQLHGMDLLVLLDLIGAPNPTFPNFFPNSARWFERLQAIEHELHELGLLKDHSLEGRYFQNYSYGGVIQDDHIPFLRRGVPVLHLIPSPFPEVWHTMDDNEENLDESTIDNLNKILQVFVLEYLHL

Row | SMILES | pIC50 ([1]; prior art compounds, A549 cells 48 h, Jurkat PathHunter SIRPαV1 reporter cells 5 h, read-out: Inhibition of SIRPα signalling induced by A549 cells: IC50) | pIC50 ([2]; prior art compounds, Raji cells 48 h, Jurkat PathHunter SIRPαV1 reporter cells 5 h) | Papp A→B at 2 h ([3]; Caco-2, pH 7.2) [×10⁻⁶ cm/s] | efflux ratio at 2 h ([3]; Caco-2, pH 7.2) | pIC50 (QPCT) | pIC50 [1, 4] | efflux ratio at 2 h [3, 5] | Papp A→B at 2 h [3, 6] [×10⁻⁶ cm/s] | pIC50 (QPCTL) | pIC50 [2, 7] | pIC50 ([1]; A549, read-out: Inhibition of SIRPα signalling induced by A549 cells: IC50) | pIC50 ([2]; Raji)
1 | Cn1cnnc1C1CCN(S(=O)(=O)c2cccc(Nc3ccc(OCc4ccccc4)nc3)c2)CC1 [Compound 23] | < 5.00 | < 5.00 | – | – | – | – | – | – | – | – | – | –
2 | Nc1ncc(C2CCN(c3ncccc3-c3ccc(F)nc3)CC2)s1 [Compound 1094] | – | – | 73 | 1 | – | – | – | – | – | – | – | –
3 | Nc1nnc(C2CCN(c3ncccc3-c3ccc(F)nc3)CC2)s1 [Compound 1095] | – | – | 68 | 0.5 | – | – | – | – | – | – | – | –
4 | Cn1cnnc1C1(F)CCN(c2c(C#N)cc(C(F)(F)F)nc2-c2cnc3nn(C(C)(C)C)cc3c2)CC1 [Example 1] | – | – | – | – | 9.00 | 7.77 | 6.4 | 5.3 | 9.00 | 8.05 | – | –
5 | Cn1cnnc1C1(F)CCN(c2c(C#N)cc(C(F)(F)F)nc2-c2cnc3nn(C(C)(C)C)c(F)c3c2)CC1 [Example 2] | – | – | – | – | 9.00 | 7.28 | 4.9 | 16 | 9.00 | 7.77 | – | –
6 | Cn1cnnc1C1(F)CCN(c2c(C#N)cc(C(F)(F)F)nc2-c2cnc3nn(C(C)(C)C)c(Cl)c3c2)CC1 [Example 3] | – | – | – | – | 9.00 | 7.55 | 1 | 47 | 9.00 | 7.85 | – | –
7 | Cn1cnnc1C1(F)CCN(c2c(C#N)cc(C(F)(F)F)nc2-c2cnc3nn(C(C)(C)C)c(C(F)(F)F)c3c2)CC1 [Example 4] | – | – | – | – | 8.30 | 7.34 | 0.6 | 99.5 | 8.05 | 7.51 | – | –
8 | Cn1cnnc1C1(F)CCN(c2c(C#N)cc(C(F)(F)F)nc2-c2cnc3nn(C(F)(F)F)cc3c2)CC1 [Example 5] | – | – | – | – | 8.40 | 7.17 | 8.2 | 6.1 | 8.70 | 7.39 | – | –
9 | Cn1cnnc1C1(F)CCN(c2c(C#N)cc(C(F)(F)F)nc2-c2cnc3nn(C(C)(C)C(F)(F)F)cc3c2)CC1 [Example 6] | – | – | – | – | 8.70 | 7.30 | 10.1 | 7.2 | 8.70 | 7.59 | – | –
10 | CC(C)n1nc2ncc(-c3nc(C(F)(F)F)cc(C#N)c3N3CCC(F)(c4nncn4C)CC3)cc2c1F [Example 7] | – | – | – | – | 8.70 | 7.41 | 11.9 | 5.8 | 8.70 | 7.59 | – | –
11 | Cn1cnnc1C1(F)CCN(c2c(C#N)cc(C(F)(F)F)nc2-c2cnc3nn(C(C)(C)C)nc3c2)CC1 [Example 8] | – | – | – | – | 8.40 | 7.54 | 2.6 | 31 | 8.30 | 7.17 | – | –
12 | Cn1cnnc1C1(F)CCN(c2c(C#N)cc(C(F)(F)F)nc2-c2cnc3nn(C(F)(F)F)nc3c2)CC1 [Example 9] | – | – | – | – | 7.00 | 6.44 | 1.4 | 45 | 7.25 | 6.06 | – | –
13 | Cn1cnnc1C1(F)CCN(c2c(C#N)cc(C(F)(F)F)nc2-c2cnc(F)cc2Cl)CC1 [Example 10] | – | – | – | – | 7.57 | 6.70 | 1.2 | 58 | 8.00 | 6.45 | – | –
14 | Cn1cnnc1C1(F)CCN(c2c(C#N)cc(C(F)(F)F)nc2-c2cnc3nc(C(C)(C)C)nn3c2)CC1 [Example 11] | – | – | – | – | 8.52 | 7.54 | 14.9 | 4.3 | 8.52 | 7.33 | – | –
15 | Cn1cnnc1C1(F)CCN(c2c(C#N)cc(C(F)(F)F)nc2-c2cnc3nc(C(F)(F)F)nn3c2)CC1 [Example 12] | – | – | – | – | 7.54 | 6.22 | 6.9 | 4.9 | 7.62 | 6.07 | – | –
16 | Cn1cnnc1C1CCN(c2c(C#N)cc(C(F)(F)F)nc2-c2cnc3nn(C(C)(C)C)c(C(F)(F)F)c3c2)CC1 [Example 13] | – | – | – | – | 7.80 | 7.15 | 5.7 | 3.7 | 8.10 | 7.27 | – | –
17 | Cn1cnnc1C1(F)CCN(c2c(C#N)ccnc2-c2cnc3nn(C(C)(C)C)c(Cl)c3c2)CC1 [Example 14] | – | – | – | – | > 9.00 | 7.92 | 6.9 | 12 | 9.00 | 7.68 | – | –
18 | Cn1cnnc1C1(F)CCN(c2c(C#N)ccnc2-c2cnc3nn(C(C)(C)C)c(C(F)(F)F)c3c2)CC1 [Example 15] | – | – | – | – | 8.52 | 7.18 | 1.6 | 35 | 8.40 | 7.16 | – | –
19 | Cn1cnnc1C1(F)CCN(c2c(C#N)ccnc2-c2cnc3nn(C(F)(F)F)cc3c2)CC1 [Example 16] | – | – | – | – | 9.00 | 8.05 | 7.7 | 3.1 | 9.00 | 7.43 | – | –
20 | Cn1cnnc1C1(F)CCN(c2c(C#N)ccnc2-c2cnc3nn(C(C)(C)C)nc3c2)CC1 [Example 17] | – | – | – | – | 8.70 | 7.40 | 13.9 | 7.2 | 8.70 | 6.99 | – | –
21 | Cn1cnnc1C1(F)CCN(c2c(C#N)ccnc2-c2cnc3nn(C(F)(F)F)nc3c2)CC1 [Example 18] | – | – | – | – | 7.28 | 6.53 | 2.8 | 27 | 7.48 | 6.03 | – | –
22 | Cn1cnnc1C1(F)CCN(c2c(C#N)ccnc2-c2cccnc2)CC1 [Example 19] | – | – | – | – | 7.21 | 6.39 | 2.6 | 11 | 7.74 | 5.66 | – | –
23 | Cc1cncc(-c2nccc(C#N)c2N2CCC(F)(c3nncn3C)CC2)c1 [Example 20] | – | – | – | – | 7.46 | 6.21 | 4.5 | 14 | 7.89 | 5.86 | – | –
24 | Cc1cc(F)ncc1-c1nccc(C#N)c1N1CCC(F)(c2nncn2C)CC1 [Example 21] | – | – | – | – | 8.22 | 6.94 | 2.4 | 18 | 9.00 | 6.73 | – | –
25 | Cn1cnnc1C1CCN(c2ncccc2-c2ccc(F)nc2)CC1 [SEN177, reference compound] | – | – | 11 | – | – | – | – | – | – | – | 6.67 | 5.86
26 | Cn1cnnc1C1CCN(c2ncccc2-c2cccnc2)CC1 [SEN180, reference compound] | – | – | 4.2 | – | – | – | – | – | – | – | – | –
